{
  "source": "ChEMBL document CHEMBL5030524",
  "about": "“Discovery of Cyclic Peptidomimetic Ligands Targeting the Extracellular Domain of EGFR” (J Med Chem, 2021)",
  "key": {"Mus musculus [1]": {"tested_on": "Mus musculus", "assay": "In vivo inhibition of EGFR in athymic nude Ncr/nu mouse xenografted with human A549 cell assessed as reduction in phosphorylated EGFR expression at 50 mg/kg, ip administered every 2 days for 7 times measured after 6 days by immunohistochemical staining based analysis", "assay_type": "functional, organism-based", "settings": "time 6.0 day"}, "[2]": {"target": "T1, Epidermal growth factor receptor (Homo sapiens, UniProt P00533)", "T1 sequence (P00533 whole entry)": "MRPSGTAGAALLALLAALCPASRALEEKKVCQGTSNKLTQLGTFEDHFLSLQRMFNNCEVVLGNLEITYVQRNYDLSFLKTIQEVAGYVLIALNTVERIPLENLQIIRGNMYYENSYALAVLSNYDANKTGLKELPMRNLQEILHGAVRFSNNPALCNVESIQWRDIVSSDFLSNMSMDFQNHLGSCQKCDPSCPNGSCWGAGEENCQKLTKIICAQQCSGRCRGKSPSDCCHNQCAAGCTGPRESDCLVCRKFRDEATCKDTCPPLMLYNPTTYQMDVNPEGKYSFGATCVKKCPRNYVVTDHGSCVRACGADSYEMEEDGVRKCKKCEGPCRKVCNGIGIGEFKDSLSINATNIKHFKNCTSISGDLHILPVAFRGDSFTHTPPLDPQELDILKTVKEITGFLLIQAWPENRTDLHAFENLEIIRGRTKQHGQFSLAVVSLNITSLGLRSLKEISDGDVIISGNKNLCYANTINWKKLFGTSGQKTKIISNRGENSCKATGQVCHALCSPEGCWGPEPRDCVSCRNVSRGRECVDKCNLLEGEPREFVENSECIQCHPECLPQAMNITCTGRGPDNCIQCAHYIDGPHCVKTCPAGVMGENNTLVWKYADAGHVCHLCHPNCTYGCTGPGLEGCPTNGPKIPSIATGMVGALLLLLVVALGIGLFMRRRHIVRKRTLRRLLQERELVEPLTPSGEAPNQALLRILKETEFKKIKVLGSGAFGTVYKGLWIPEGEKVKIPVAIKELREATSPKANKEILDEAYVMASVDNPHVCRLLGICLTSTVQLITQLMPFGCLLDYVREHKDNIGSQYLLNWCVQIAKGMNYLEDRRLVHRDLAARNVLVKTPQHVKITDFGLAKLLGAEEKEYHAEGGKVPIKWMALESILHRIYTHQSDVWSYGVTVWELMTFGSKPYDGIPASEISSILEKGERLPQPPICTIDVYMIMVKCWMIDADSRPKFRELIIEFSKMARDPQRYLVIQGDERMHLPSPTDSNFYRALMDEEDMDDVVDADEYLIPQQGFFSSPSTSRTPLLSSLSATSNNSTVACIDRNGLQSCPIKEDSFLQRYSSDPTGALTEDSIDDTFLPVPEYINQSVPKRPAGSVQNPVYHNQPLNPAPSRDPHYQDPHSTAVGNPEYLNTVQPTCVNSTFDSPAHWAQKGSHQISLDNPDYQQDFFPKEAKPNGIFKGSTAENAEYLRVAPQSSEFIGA", "assay": "Inhibition of […] EGFR phosphorylation in human A549 cells pretreated for 4 hr followed by EGF stimulation by Western blot analysis", "assay_type": "cell-based"}, "A549 [3]": {"tested_on": "A549", "assay": "Antiproliferative activity against human serum starved A549 cells assessed as reduction in cell viability after 48 hrs in presence of EGF by CCK8 assay", "assay_type": "functional, cell-based", "settings": "A549, 48 h"}, "[4]": {"target": "T1, Epidermal growth factor receptor", "assay": "Inhibition of EGFR in human A549 cells assessed as reduction in EGF-induced ERK phosphorylation measured after 4 hrs by Western blot analysis", "assay_type": "cell-based"}, "[5]": {"assay": "Selectivity ratio of IC50 for HEK293 cells to IC50 for human A549 cells", "assay_type": "toxicity", "settings": "HEK293 cells versus A549 cells, read-out: Ratio IC50"}, "A549 [6]": {"tested_on": "A549", "assay": "Antimigratory activity against human A549 cells assessed as inhibition of cell migration at 25 uM in presence of EGF by scratch wound healing assay (reference value: 133.9 %)", "assay_type": "functional", "design": "scale not given: the % may be the effect or the level left"}, "[7]": {"target": "T1, Epidermal growth factor receptor", "assay": "Binding affinity to EGFR (unknown origin) assessed as dissociation constant by fluorescence polarization assay"}, "[8]": {"target": "T1, Epidermal growth factor receptor", "assay": "Inhibition of EGFR in human A549 cells assessed as reduction in EGF-induced Akt phosphorylation measured after 4 hrs by Western blot analysis", "assay_type": "cell-based"}, "[9]": {"assay": "Stability of the compound assessed as pronase (unknown origin)-mediated drug degradation measured after 20 hrs by HPLC analysis", "assay_type": "ADME", "settings": "bacteria"}, "HEK293": {"tested_on": "HEK293", "assay": "Cytotoxicity against HEK293 cells assessed as reduction in cell viability after 48 hrs by CCK8 assay", "assay_type": "cell-based", "settings": "Homo sapiens, HEK293, 48 h"}, "[10]": {"assay": "Toxicity in athymic nude Ncr/nu mouse xenografted with human A549 cells assessed as effect on weight gain at 10 to 50 mg/kg, ip", "assay_type": "organism-based", "settings": "in vivo, 144 h, dose 10-50 mg/kg, time 6 day"}, "A549 [11]": {"tested_on": "A549", "assay": "Antitumor activity against human A549 cells xenografted in athymic nude Ncr/nu mouse assessed as suppression of tumor growth at 50 mg/kg, ip administered once every 2 days for seven days", "assay_type": "functional, organism-based", "settings": "time 7.0 day"}, "A549 [12]": {"tested_on": "A549", "assay": "Antimigratory activity against human A549 cells assessed as inhibition of cell migration at 25 uM measured after 30 hrs by scratch wound healing assay (reference value: 55.3 %)", "assay_type": "functional", "design": "scale not given: the % may be the effect or the level left"}, "Mus musculus [13]": {"tested_on": "Mus musculus", "assay": "In vivo inhibition of EGFR in athymic nude Ncr/nu mouse xenografted with human A549 cell assessed as reduction in phosphorylated ERK expression at 50 mg/kg, ip administered every 2 days for 7 times measured after 6 days by immunohistochemical staining based analysis", "assay_type": "functional, organism-based", "settings": "time 6.0 day"}, "A549 [14]": {"tested_on": "A549", "assay": "Antiproliferative activity against human serum starved A549 cells assessed as reduction in cell viability at 10 uM after 48 hrs by CCK8 assay relative to control", "assay_type": "functional"}, "[15]": {"target": "T1, Epidermal growth factor receptor", "assay": "Inhibition of […] EGFR phosphorylation in human A549 cells at 25 uM pretreated for 4 hr followed by EGF stimulation by Western blot analysis relative to control", "assay_type": "cell-based"}, "A549 [16]": {"tested_on": "A549", "assay": "Antitumor activity against human A549 cells xenografted in athymic nude Ncr/nu mouse assessed as suppression of tumor growth at 10 mg/kg, ip administered once every 2 days for seven times and measured after 6 day", "assay_type": "functional, organism-based"}, "[17]": {"assay": "Oral bioavailability in human", "assay_type": "ADME, organism-based", "settings": "in vivo"}},
  "note": "The source made the active and inactive calls. The calls are words filed in the database; no cut-off is given here.",
  "data": [
    {"compound": "COc1cc(CC(=O)N2CC(=O)N[C@@H](Cc3ccccc3)C(=O)N(CC(N)=O)C(=O)CCSCc3ccc(cc3)C(=O)N[C@@H](CCCCN)CN(C(=O)CCC3CCCCC3)CC(=O)N[C@@H](Cc3ccccc3)CN(C(=O)CCc3ccccc3)CC(=O)N[C@@H](Cc3ccccc3)C2)cc(OC)c1", "values": [
      {"measurement": "inhibition", "setting": "Mus musculus [1]", "value": "Active"},
      {"measurement": "IC50", "setting": "[2]", "value": 17.7, "unit": "µM"},
      {"measurement": "IC50", "setting": "A549 [3]", "value": 8.36, "unit": "µM"},
      {"measurement": "inhibition", "setting": "[4]", "value": "Dose-Dependent Effect"},
      {"measurement": "selectivity ratio", "setting": "[5]", "value": 8},
      {"measurement": "Activity", "setting": "A549 [6]", "value": 64.8, "unit": "%"},
      {"measurement": "Kd", "setting": "[7]", "value": 0.43, "unit": "µM"},
      {"measurement": "inhibition", "setting": "[8]", "value": "Dose-Dependent Effect"},
      {"measurement": "Drug degradation", "setting": "[9]", "value": "Stable"},
      {"measurement": "IC50", "setting": "HEK293", "value": 62.1, "unit": "µM"},
      {"measurement": "Activity", "setting": "[10]", "value": "Non-Toxic"},
      {"measurement": "Activity", "setting": "A549 [11]", "value": "Active"},
      {"measurement": "Activity", "setting": "A549 [12]", "value": 15.2, "unit": "%"},
      {"measurement": "inhibition", "setting": "Mus musculus [13]", "value": "inactive"},
      {"measurement": "Activity", "setting": "A549 [14]", "value": 100, "unit": "%"},
      {"measurement": "inhibition", "setting": "[15]", "value": 100, "unit": "%"},
      {"measurement": "Activity", "setting": "A549 [16]", "value": "inactive"}
    ]},
    {"compound": "NC(=O)N1c2ccccc2C=Cc2ccccc21", "note": "[CARBAMAZEPINE]", "values": [
      {"measurement": "bioavailability", "setting": "[17]", "value": "> 90", "unit": "%"}
    ]},
    {"compound": "CC(C)C[C@H]1CN(C(=O)Cc2ccc3c(c2)OCO3)CC(=O)N[C@@H](Cc2ccccc2)CN(C(=O)CCC2CCCCC2)CC(=O)N[C@@H](Cc2ccccc2)CN(C(=O)Cc2ccc3c(c2)OCO3)CC(=O)N[C@@H](CC(C)C)C(=O)N(CC(N)=O)C(=O)CCSCc2ccc(cc2)C(=O)N1", "values": [
      {"measurement": "Kd", "setting": "[7]", "value": 0.55, "unit": "µM"}
    ]}
  ]
}
